Assay results reported in US11957766B2, “HNQO1-activatable fluorescent probe for imaging cancer cells in-vitro and in-vivo” (Texas Tech University System, priority 2019, dated 2024).

Tests used:
A549 and H460 cells = test: Flow cytometry of NIR-ASM in NQO1-positive cancer cell lines; type: cell-based, human; settings: 60 min, about 1×10^4 cells
Description: Detection of NQO1 in live cells. Inspired by the excellent biocompatibility, the inventors investigated its performance in both NQO1 expressing cancer cells (A549, H460) and NQO1 non-expressing normal cells (IMR90, HUVEC). All cells were incubated with NIR-ASM (10 μM) for 60 min, washed with PBS and were imaged under a confocal microscope after counterstaining the nuclei with Hoechst 33342 (FIG. 12A). […] The higher expression of NQO1 protein in A549 and H460 cells and its absence in normal cells, IMR90 and HUVEC as found with western blot analysis correlated with the probe reactivity in cells (FIG. 12B). […] Cell sorting using flow cytometry is a well-established technology in clinical diagnostics and biomedical research. To assess the applicability of the NIR-ASM to rapidly detect and quantify in both cancer and normal cells based on NQO1 expression, the probe was incubated with cell suspensions for 60 min, and about 1×10^4 cells were analyzed on a flow cytometer.
Flow cytometry analysis. The endogenous NQO1 activity of cancer cells and normal cells was determined by flow cytometry after NIR-ASM exposure. Cells were incubated with 10 μM of NIR-ASM for 60 min, harvested by trypsinization and washed with PBS. For inhibitor study, cells were pretreated with NQO1 inhibitor ES936 (100 nM) for 6 h before adding the NIR-ASM. About 1×10^4 cells were analyzed by flow cytometry (λex=488 nm).

NQO1 in A549 cells = test: siRNA knockdown of NQO1 and NIR-ASM activation; type: cell-based, human; settings: NQO1 expression silenced more than 70%, 60 min incubation, compared with the control
Description: Chemical and genetic approaches confirm the specificity of NIR-ASM for NQO1 in live tumor cells. A fluorescence probe with high sensitivity, simple operation, and excellent specificity will be an asset for the detection of NQO1 in situ. To assess the substrate selectivity of NIR-ASM for NQO1, both A549 and H460 cells were pretreated with 100 nM of NQO1 inhibitor ES936 for 6 h, before incubating with 10 μM NIR-ASM. […] The effect of ES936 on endogenous NQO1 activity and subsequent reactivity with NIR-ASM was also determined by flow cytometry. […] The presence of NQO1 protein in the transfected MDA-MB-231 cells and its absence in the untransfected control was confirmed by immunoblotting (FIG. 13E). Subsequently, the NQO1-negative and positive MDA-MB-231 cell lines were incubated with NIR-ASM and analyzed by fluorescence microscopy and flow cytometry for activation of the probe.
Knockdown of NQO1 by small interfering RNA (siRNA). NQO1 and scrambled or control siRNAs were introduced into cells using the X-tremeGENE siRNA transfection reagent (Roche) according to the manufacturer's instructions. 10 μl of transfection reagent was mixed with 80 pmol of siRNA and added to A549 cells in six-well plates. siRNA transfection efficiency was confirmed with Western blotting.

[1] = test system: A549 and MDA-MB-231 tumors; test: In vivo imaging of NQO1-positive (A549) and -negative (MDA-MB-231) xenografts in the same animal with NIR-ASM; design: species or system nude mice; settings: intravenous, tumors of 200 mm^3
Description: Additionally, to validate the NQO1-specific activation of NIR-ASM to generate fluorescence, the inventors generated NQO1-positive (A549) and -negative (MDA-MB-231) xenografts in the same animal by injecting the corresponding tumor cells on the left and right flanks of the nude mice respectively. When tumors reached a volume of 200 mm^3, NIR-ASM was administered through intravenous injection and the animals were imaged using the In Vivo imager.
In vivo bioimaging. The animal study protocol was approved by the Institutional Animal Use and Care Committee (IACUC), Texas Tech University Health Sciences Center, Protocol number: 07050. All experimental protocols used in this study were approved by IACUC, Texas Tech University Health Sciences Center and all the methods were carried out according to the committee guidelines. Female athymic nude mice (nu/nu, 4-6 weeks) were purchased from Charles River Laboratories (Wilmington, MA, USA). BALB/c57 mice were provided by Dr. Constantinos Mikelis of our University. To establish A549 or MDA-MB-231 xenografts, a total of 5×10^6 cells (in 0.1 ml of serum-free media and Matrigel (1:1)) were subcutaneously injected into the flanks of the mice. […] All animals were monitored for activity, physical condition, body weight, and tumor growth. […] Fluorescence represented in log values of radiance is photons per second per square centimeter per steradian.

NQO1 = NQO1 (Homo sapiens, UniProt P15559); test: Selectivity of NQ-DCP towards hNQO1 over other biomolecules/enzymes; type: biochemical; settings: 10 μM probe, 30 min; GSH, ALDH1A1, GGT, GPx, APE1, CBS, CTSL, GST-pi, NTR, NADH
Description: Selectivity of NQ-DCP Towards hNQO1. The specificity of NQ-DCP probe towards hNQO1 was studied by determining its reactivity towards various biomolecules such as the glutathione (GSH, 1 mM), aldehyde dehydrogenase 1 (ALDH1A1, 2.5 μg/mL), gamma-glutamyl transferase (GGT, 10 U), glutathione Peroxidase (GPx, 10 U), apurinic/apyrimidinic endonuclease (APE1, 10 U), cystathionine-β-synthase (CBS, 2 μg/mL), cathepsin L (CTSL, 2 μg/mL), glutathione S-transferase (GST-pi, 2 μg/mL), nitroreductase (NTR, 2 μg/mL) and NADH (100 μM) alone or the combination of and NQO1 (2.5 μg/mL). […] To gain more insight into the specificity of the probe towards hNQO1, the enzyme was pre-treated with ES936 (0-100 nM), a well-known hNQO1 inhibitor [39] and then incubated with NQ-DCP.
Selectivity Evaluation. To study the interference, NQ-DCP was incubated with various biologically relevant analytes such as thiols and other enzymes for 30 min with or without the addition of 100 μM NADH. Fluorescence spectra were analyzed to determine NQ-DCP specificity against hNQO1.

Sequence of NQO1 (P15559 whole entry): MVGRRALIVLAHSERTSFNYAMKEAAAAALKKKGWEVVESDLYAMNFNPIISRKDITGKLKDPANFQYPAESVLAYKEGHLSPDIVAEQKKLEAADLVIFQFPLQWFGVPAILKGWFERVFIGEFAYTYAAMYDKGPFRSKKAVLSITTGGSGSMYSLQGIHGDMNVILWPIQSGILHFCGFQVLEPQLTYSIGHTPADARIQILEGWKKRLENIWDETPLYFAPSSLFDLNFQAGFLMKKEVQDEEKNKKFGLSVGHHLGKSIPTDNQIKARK

| selectivity for hNQO1 over the other enzymes/substrates tested (NQO1) | Structure (SMILES) | flow cytometry fluorescence signal, NQO1-positive cells (A549 and H460 cells) | NIR-ASM fluorescence after siRNA silencing of NQO1 (NQO1 in A549 cells) | fluorescence signal, NQO1-positive A549 tumor [1] | fluorescence signal, NQO1 negative MDAMB-231 tumors [1] |
| --- | --- | --- | --- | --- | --- |
| – | CC1=C(C)C(=O)C(C(C)(C)CC(=O)Nc2ccc(/C=C/C3=CC(=C(C#N)C#N)CC(C)(C)C3)cc2)=C(C)C1=O [NIR-ASM, (E)-N-(4-(2-(3-(dicyanomethylene)-5,5-dimethylcyclohex-1-en-1-yl)vinyl)phenyl)-3-methyl-3-(2,4,5-trimethyl-3,6-dioxocyclohexa-1,4-dien-1-yl)butanamide] | high-intensity unimodal distribution of signals | almost a total loss | observed only from the A549 tumor | no signal was discernible |
| high selectivity | CC1=C(C)C(=O)C(C(C)(C)CC(=O)Oc2ccc(/C=C/C3=CC(=C(C#N)C#N)CC(C)(C)C3)cc2)=C(C)C1=O [NQ-DCP] | – | – | – | – |
